Assay [1] addresses T1, ACE in thoracic aorta tissue (Rattus norvegicus, UniProt P47820).
T1 sequence (P47820 36-1313): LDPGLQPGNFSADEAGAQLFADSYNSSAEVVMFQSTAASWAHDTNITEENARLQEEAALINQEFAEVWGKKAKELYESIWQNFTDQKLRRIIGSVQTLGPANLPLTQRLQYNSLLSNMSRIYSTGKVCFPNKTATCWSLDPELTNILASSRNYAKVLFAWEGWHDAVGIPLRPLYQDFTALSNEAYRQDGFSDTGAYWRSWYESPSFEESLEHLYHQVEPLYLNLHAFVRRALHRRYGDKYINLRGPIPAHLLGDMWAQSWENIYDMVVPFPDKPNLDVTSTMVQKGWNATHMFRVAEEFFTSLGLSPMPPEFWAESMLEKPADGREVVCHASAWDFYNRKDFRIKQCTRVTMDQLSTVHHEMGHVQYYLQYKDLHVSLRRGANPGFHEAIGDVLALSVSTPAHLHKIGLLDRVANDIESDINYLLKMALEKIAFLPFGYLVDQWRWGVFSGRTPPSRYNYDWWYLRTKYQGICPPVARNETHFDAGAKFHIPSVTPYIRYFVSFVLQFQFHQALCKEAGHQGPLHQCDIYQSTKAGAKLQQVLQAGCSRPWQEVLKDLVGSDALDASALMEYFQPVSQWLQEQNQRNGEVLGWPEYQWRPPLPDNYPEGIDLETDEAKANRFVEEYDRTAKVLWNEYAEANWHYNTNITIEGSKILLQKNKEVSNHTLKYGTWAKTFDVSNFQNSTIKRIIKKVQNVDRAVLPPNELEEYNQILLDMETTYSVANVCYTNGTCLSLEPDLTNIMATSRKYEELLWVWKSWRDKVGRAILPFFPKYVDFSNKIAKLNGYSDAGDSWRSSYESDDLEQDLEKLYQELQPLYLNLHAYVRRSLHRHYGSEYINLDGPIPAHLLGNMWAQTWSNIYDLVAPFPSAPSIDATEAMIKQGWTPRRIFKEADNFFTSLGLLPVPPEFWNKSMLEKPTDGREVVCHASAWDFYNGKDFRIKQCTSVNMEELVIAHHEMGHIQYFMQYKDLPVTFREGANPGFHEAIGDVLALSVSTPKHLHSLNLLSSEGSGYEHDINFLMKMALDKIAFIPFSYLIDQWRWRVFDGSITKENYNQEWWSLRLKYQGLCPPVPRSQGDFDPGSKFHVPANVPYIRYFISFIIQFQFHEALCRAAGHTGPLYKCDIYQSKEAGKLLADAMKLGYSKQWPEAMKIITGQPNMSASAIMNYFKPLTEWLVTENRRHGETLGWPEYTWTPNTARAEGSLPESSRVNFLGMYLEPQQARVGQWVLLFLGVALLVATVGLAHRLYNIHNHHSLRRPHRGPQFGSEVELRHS
Nature of the assay: Ex vivo ACE inhibition assay: Ang II production in endothelium-denuded thoracic aorta rings (UPLC-MS).
Description: Isolation of the thoracic aorta from SHRs (n = 12) and preparation of endothelium-denuded aortic rings was performed as described above. Endothelium was removed to eliminate the influence of endothelium-derived vasodilators.
After 30 min incubation, 1.0 mL of 0.20 µM Ang I was added and the aortic tension was recorded. When vasoconstriction plateaued, Krebs solution in the organ bath was transferred to a test tube and heated at 90°C for 5 min to stop the enzyme reaction; the heat-treated samples were dried under vacuum and frozen at −80°C until UPLC-MS analysis. The aorta rings were used in the BCA assay to express Ang II production as pmol/mg-protein.
Vacuum-dried samples were dissolved in 500 µL acetonitrile/4.0 mM ammonium formate (5∶95 v/v) with 4.0 mM formic acid prior to UPLC-MS analysis, performed at the CREFAS (Collaborated Research Center for Food Functions, Faculty of Agriculture, Shinshu University); Quattro micro API (MS) with an ACQUITY UPLC (Waters Co., USA) was used. Separation was conducted at 35°C using a CHEMCOBOND 5-ODS-W reversed-phase column (4.6×150 mm; ChemcoPlus Scientific Co., Ltd. Kyoto, Japan). […] Mass spectra were acquired in electrospray ionization (ESI) mode using 3500 V capillary voltage, 30 V cone voltage, 350 L/h N2 gas flow (desolvation), 50 L/h N2 gas flow (cone), 100°C source temperature, and 350°C desolvation temperature. […] For each sample, measurements were performed in triplicate; the results were expressed as the mean ± S.E.

In assay [2] the target is T2, ACE (EC 3.4.15.1) purified from the rabbit lungs (Oryctolagus cuniculus, UniProt P12822).
T2 construct: ACE (EC 3.4.15.1) purified from the rabbit lungs; purchased Sigma-Aldrich Japan K.K; host or cells: rabbit lung (tissue-purified)
T2 sequence (P12822 34-1310): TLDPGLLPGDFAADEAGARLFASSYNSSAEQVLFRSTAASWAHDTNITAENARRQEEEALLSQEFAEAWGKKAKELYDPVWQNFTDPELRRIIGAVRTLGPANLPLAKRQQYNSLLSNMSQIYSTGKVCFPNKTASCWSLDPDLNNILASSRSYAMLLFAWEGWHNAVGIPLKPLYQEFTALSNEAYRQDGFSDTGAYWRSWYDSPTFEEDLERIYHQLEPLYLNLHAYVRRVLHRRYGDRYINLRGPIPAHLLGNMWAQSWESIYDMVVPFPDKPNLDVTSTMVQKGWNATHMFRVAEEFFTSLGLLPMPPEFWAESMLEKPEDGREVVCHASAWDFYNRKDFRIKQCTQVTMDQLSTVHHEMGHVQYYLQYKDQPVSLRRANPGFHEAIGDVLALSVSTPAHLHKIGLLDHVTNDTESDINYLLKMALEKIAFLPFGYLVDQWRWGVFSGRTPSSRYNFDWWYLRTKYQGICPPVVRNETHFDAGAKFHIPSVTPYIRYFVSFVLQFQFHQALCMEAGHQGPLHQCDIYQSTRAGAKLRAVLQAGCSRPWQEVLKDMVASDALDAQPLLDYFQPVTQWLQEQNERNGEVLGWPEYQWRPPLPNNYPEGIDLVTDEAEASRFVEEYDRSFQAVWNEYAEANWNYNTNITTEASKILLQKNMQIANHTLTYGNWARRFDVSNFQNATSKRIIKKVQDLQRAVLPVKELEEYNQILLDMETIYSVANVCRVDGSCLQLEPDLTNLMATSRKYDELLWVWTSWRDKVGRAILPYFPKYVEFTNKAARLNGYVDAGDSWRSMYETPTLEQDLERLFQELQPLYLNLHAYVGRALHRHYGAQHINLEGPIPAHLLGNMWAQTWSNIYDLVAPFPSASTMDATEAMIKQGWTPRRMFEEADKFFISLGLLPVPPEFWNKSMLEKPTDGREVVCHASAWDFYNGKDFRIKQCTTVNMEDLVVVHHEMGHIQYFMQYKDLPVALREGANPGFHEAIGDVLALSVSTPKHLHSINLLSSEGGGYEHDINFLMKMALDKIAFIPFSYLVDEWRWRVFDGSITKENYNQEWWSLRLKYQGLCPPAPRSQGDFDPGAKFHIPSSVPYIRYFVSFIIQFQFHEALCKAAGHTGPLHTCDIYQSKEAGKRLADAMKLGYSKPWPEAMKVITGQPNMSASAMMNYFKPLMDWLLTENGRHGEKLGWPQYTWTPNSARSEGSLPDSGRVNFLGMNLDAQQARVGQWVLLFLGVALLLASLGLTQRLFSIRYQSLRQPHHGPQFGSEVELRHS
Nature of the assay: biochemical. The source says:
ACE (EC 3.4.15.1) purified from the rabbit lungs was obtained from Sigma-Aldrich Japan K.K. (Tokyo, Japan). Hippuryl-L-histidyl-L-leucine (Hip-His-Leu) was obtained from the Peptide Institute (Osaka, Japan). Ammonium formate, borate, diethyl ether, ethyl acetate, formate, hydrochloric acid (HCl), HPLC-grade acetonitrile, sodium chloride (NaCl), potassium chloride (KCl), potassium dihydrogen phosphate (KH2PO4), magnesium acetate (Mg(CH3COO)2), magnesium sulfate (MgSO4), Nonidet P-40, sodium hydrogen carbonate (NaHCO3), sucrose, and tris(hydroxymethyl)aminomethane were purchased from Kanto Chemical Co., Inc. (Tokyo, Japan). Trifluoroacetic acid (TFA) was purchased from Watanabe Chemical Industries, Ltd. (Hiroshima, Japan).
The in vitro ACE inhibition assay was performed using the method described previously. […] Then, 100 µL of commercial ACE (6.0 mU) was added, and the mixture was incubated at 37°C for 30 min. The reaction was stopped by 250 µL of 1.0 N HCl. Released hippuric acid (Hip) was extracted with 1.0 mL ethyl acetate and quantified by HPLC according to our previous report.

The target of assay [3] is T3, Ang II-mediated vasoconstriction (Rattus norvegicus, UniProt P47820).
T3 sequence (P47820 36-1313): T1 sequence (P47820 36-1313)
The assay is described as follows: Ex vivo ACE inhibition assay: Ang II-mediated vasoconstriction of endothelium-denuded thoracic aorta rings. On the set-up: species or system spontaneously hypertensive rats (SHRs). The note with it: 0.2 µM Ang I, read-out: EC50 of suppression of Ang II-mediated vasoconstriction.

The test system of assay [4] is systolic and diastolic blood pressure. The note with it: SHRs; ref [8]; cited from earlier work.
The subject of assay [5] is ACE. On the set-up: method as in PMID 7673515. The note with it: ref [7], [8]; read-out: in vitro ACE-inhibitory activity IC50; cited from earlier work.
Setting [6] is: Hip-His-Leu substrate, mean ± S.E., n = 3, read-out: In vitro ACE-inhibitory activity IC50.

Read-outs that look alike come from different tables or passages of the source. Where a SMILES comes first, the peptide text is derived from it.

A word on the IC50: it is the concentration that inhibits the measured activity by half. The term EC50 denotes the concentration at which the effect is half-maximal.

As to `CC(C)[C@H](NC(=O)[C@@H](N)CC(=O)O)C(=O)N[C@@H](Cc1c[nH]c2ccccc12)C(=O)N[C@@H](Cc1ccc(O)cc1)C(=O)O` [DVWY] (H-DVWY-OH), the values for the IC50 in assay [1] and in assay [2] were 70.5 µM and 690 ± 40 µM, respectively. The EC50 in assay [3] was determined as 68.2 µM.

In the case of `C[C@H](NC(=O)[C@H](CC(=O)O)NC(=O)[C@@H](N)Cc1ccccc1)C(=O)N[C@@H](CCCNC(=N)N)C(=O)N[C@H](C(=O)O)[C@@H](C)O` [FDART] (H-FDART-OH), the IC50 in assay [1] was 41.7 µM; in assay [2], 1900 ± 100 µM. The half-maximal effective concentration (EC50) in assay [3] was found to be 53.6 µM.

Regarding `NC(=O)CC[C@H](NC(=O)[C@@H](N)Cc1ccccc1)C(=O)O` [FQ], the results for the IC50 in assay [1] and in assay [2] (setting [6]) were 90.9 µM and 7400 ± 600 µM, respectively. Also, the EC50 in assay [3] worked out at 85.1 µM.

`CC(C)[C@H](N)C(=O)N[C@@H](C)C(=O)N[C@@H](CCC(=O)O)C(=O)O` [VAE] (H-Val-Ala-Glu-OH): in assay [2] (setting [6]), the concentration for half-maximal inhibition (IC50) amounted to 55900 ± 1900 µM.

As for `CC(C)[C@H](N)C(=O)N[C@H](C(=O)NCC(=O)O)C(C)C` [VVG] (H-Val-Val-Gly-OH), the IC50 in assay [2] (setting [6]) amounted to 39600 ± 5700 µM.

For the compound `C[C@@H](O)[C@H](NC(=O)[C@@H](N)Cc1c[nH]c2ccccc12)C(=O)N[C@@H](Cc1ccccc1)C(=O)N[C@@H](CCCNC(=N)N)C(=O)O` [WTFR] (H-WTFR-OH), the IC50 in assay [1] worked out at 5.64 µM; in assay [2] it was 6700 ± 500 µM. In addition, in assay [1] (at 10 µM, endothelium-denuded rings, 0.2 µM Ang I), the “reduction of Ang II production” value came out at 59%. The EC50 in assay [3] was determined as 36.8 µM.

As to Val-Tyr [VY], the “minimum effective BPL dose” value in assay [4] is given as 1.0 mg/kg. Moreover, the IC50 in assay [5] is 26 µM.
